Values of other authors in patent US8124611B2, “Inhibitors of the mutant form of kit” (Novartis AG, priority 2003, dated 2012).

Biological target: KIT D816V mutation (Homo sapiens, UniProt P10721, D816V)
Details: D816V mutation commonly found in systemic mastocytosis

KIT D816V mutation, sequence (P10721 26-976 D816V): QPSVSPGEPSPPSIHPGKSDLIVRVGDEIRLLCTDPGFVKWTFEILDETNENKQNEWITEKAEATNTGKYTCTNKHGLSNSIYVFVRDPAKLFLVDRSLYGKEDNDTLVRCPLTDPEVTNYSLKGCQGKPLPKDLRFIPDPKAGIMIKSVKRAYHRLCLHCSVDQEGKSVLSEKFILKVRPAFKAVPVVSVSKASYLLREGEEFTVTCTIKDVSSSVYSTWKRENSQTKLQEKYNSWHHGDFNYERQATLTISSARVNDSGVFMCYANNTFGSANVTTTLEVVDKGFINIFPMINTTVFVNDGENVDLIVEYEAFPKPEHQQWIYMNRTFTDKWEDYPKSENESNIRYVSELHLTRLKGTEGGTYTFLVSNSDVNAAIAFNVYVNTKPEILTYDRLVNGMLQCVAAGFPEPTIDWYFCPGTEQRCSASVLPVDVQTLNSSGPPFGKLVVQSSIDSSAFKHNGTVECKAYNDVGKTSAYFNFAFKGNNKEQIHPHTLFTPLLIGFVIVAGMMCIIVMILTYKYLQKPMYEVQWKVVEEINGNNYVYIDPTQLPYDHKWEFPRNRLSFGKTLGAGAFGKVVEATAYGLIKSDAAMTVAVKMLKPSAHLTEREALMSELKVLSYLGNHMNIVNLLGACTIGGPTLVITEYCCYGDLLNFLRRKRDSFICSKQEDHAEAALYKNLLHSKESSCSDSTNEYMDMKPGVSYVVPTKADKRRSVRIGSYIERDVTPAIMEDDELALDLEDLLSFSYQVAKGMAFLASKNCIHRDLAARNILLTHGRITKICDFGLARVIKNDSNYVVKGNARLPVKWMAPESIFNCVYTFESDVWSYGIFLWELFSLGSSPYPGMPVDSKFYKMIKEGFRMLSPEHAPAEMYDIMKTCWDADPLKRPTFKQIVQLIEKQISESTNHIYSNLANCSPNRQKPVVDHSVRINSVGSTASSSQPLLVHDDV

Cc1ccc(NC(=O)c2ccc(CN3CCN(C)CC3)cc2)cc1Nc1nccc(-c2cccnc2)n1 [Imatinib]
activity against mutant forms of KIT: inactive or significantly less active
